{"source": "patent US10167299B2", "about": "“1-(3-aminopropyl) substituted cyclic amine compounds, preparation method therefor, and pharmaceutical compositions and uses thereof” (SHANGHAI INSTITUTE OF MATERIA MEDICA, CHINESE ACADEMY OF …, priority 2013, dated 2019)", "key": {"CYP3A4-M": {"biological_target": "CYP3A4-M (Homo sapiens (Human), UniProt P08684)", "sequence (P08684 whole entry)": "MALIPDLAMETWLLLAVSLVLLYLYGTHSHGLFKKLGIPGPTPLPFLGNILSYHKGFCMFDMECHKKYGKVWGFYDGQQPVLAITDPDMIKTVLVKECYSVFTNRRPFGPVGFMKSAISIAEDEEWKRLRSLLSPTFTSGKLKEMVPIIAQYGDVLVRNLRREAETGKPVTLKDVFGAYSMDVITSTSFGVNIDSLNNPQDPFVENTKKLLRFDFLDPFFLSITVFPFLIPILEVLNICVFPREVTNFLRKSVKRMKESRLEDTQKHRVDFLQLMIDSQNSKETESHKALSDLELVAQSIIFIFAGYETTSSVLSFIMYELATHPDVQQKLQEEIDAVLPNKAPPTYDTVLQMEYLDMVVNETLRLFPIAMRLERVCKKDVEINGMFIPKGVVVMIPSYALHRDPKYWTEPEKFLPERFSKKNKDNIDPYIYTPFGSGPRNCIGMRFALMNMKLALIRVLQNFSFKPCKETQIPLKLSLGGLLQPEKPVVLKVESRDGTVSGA", "assay": "CYP450 inhibition activity assay (Vivid kit) CYP3A4-M", "conditions": "CYP450 subtype (μM) 3A4-M (IC50)", "procedure": "(§1) VividR CYP450 Screening Kits can be used to evaluate the effects on CYP450 subtypes (CYP1A2, CYP2D6, CYP2C9, CYP2C19, CYP3A4-T and CYP3A4-M) and the substrate VividR in the kit can be metabolizd to a product which can emit strong fluorescence in an aqueous solution by specific CYP450 enzymes.\n(§2) 1. The compounds to be tested and positive compound were added to corresponding wells and DMSO was added to control wells.\n(§3) 2. CYP450 enzyme was added to the compounds to be tested, positive compound and DMSO control wells. The enzyme dilution was used to replace enzyme and added to DMSO wells as test background. The mixture was vibrated and mixed for 1 minute, and then incubated at room temperature for 20 minutes.\n(§4) 3. NADP^+ regeneration system and the substrate were added to initiate the reaction and incubated at room temperature for 60 minutes."}, "CYP2C9": {"biological_target": "CYP2C9 (Homo sapiens (Human), UniProt P11712)", "sequence (P11712 whole entry)": "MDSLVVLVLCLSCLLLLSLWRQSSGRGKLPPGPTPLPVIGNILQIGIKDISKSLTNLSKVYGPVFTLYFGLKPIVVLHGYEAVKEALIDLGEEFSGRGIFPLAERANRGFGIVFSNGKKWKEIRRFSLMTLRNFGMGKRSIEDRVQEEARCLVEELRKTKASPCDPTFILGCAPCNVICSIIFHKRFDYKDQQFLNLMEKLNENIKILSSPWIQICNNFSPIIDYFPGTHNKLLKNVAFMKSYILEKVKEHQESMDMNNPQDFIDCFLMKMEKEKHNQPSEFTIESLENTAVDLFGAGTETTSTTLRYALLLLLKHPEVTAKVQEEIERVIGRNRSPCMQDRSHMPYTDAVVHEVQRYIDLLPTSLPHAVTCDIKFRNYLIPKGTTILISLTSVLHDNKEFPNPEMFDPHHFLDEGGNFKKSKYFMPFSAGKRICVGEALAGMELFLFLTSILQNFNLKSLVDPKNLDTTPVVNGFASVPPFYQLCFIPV", "assay": "CYP450 inhibition activity assay (Vivid kit) CYP2C9", "assay_type": "in vitro ADME", "conditions": "CYP450 subtype (μM) 2C9 (IC50)"}, "CYP3A4-T": {"biological_target": "CYP3A4-T (Homo sapiens (Human), UniProt P08684)", "sequence (P08684 whole entry)": "as the sequence (P08684 whole entry) above", "assay": "CYP450 inhibition activity assay (Vivid kit) CYP3A4-T", "conditions": "CYP450 subtype (μM) 3A4-T (IC50)", "procedure": "as §1, §2, §3, §4"}, "[1]": {"conditions": "rat, in vivo", "protocol": "The administration volume was 10 mL/kg and drug was formulated with DMSO/Tween 80/physiological saline (5:5:90, v/v/v). […] 2 h after dosing, the rats ate together.\nAt above time points, 0.3 ml of venous blood was taken from retrobulbar venous plexus of the rat and loaded into EDTA-2K anticoagulative tube. After centrifuged at 11000 rpm for 5 mm, the plasma was separated and frozen at −20° C. in a refrigerator.\nThe concentration of each compound in rat plasma was determined by LC/MS/MS.\nThe pharmacokinetic parameters after administration were calculated by using non-compartment model of WinNonlin 5.3 software (Pharsight Corporation, USA)."}, "CCR5 protein": {"test_system": "CCR5 protein", "assay": "Thermal stability of protein test (CPM-assay)", "assay_type": "binding", "conditions": "for protein stability effect in words, versus positive control compound: conclusion from Table 2; for Tm (° C.): thermal stability of CCR5 protein with compound, CPM dye", "excerpt": "Experimental theory: many cysteines are present in CCR5 protein sequence. Cysteines located in loop region form disulfide bonds to stabilize the tertiary structure of the protein. Some free cysteines in reduced state are located in the transmembrane region. Under excitation by incident light of 387 nm, the combination of free sulfhydryl and fluorescent dye CPM can emit excitation light of 436 nm. […] The free sulfhydryls originally located in the transmembrane region expose and combine with the fluorescent dye. And then the detector will detect changes in signal enhancement. Therefore, the thermal stability of membrane proteins can be determined according to the temperature (Tm) at the midpoint of changes in signal intensity.\nExperimental steps: Upon preliminary purification, the obtained protein solution was transferred into a small concentration tube (100 kd, 500 ul) for concentration (1000 rcf, 12 min, 4° C.). After centrifugation, the concentration tube was taken out and flicked to prevent protein coagulation due to high local concentration. The final concentrated volume was about 50 μl. 117 μl of purified solution (volume is suitable to make the total volume up to 120 μl), 1 μl fluorescent dye cpm (in-house prepared) and 2 μl of concentrated protein solution (the amount of added protein is 3-5 μg according to the calculated concentration of the protein solution and the concentrated volume) were added to 2 ml Ependorf tube and incubated at room temperature for 20 min. And then the mixture was added to the cuvette (Qwan) and put in the testing equipment Cary, wherein the surface of the frosted glass faced out. The temperature was set in the range of 4-90° C. with 1° C. increase per minute and the program was run. Tm value can be obtained by processing the data and graph with a mapping software and can be used to compare the difference of protein thermal stability under different conditions."}, "CCR5": {"biological_target": "CCR5 (Homo sapiens (Human), UniProt P51681)", "sequence (P51681 whole entry)": "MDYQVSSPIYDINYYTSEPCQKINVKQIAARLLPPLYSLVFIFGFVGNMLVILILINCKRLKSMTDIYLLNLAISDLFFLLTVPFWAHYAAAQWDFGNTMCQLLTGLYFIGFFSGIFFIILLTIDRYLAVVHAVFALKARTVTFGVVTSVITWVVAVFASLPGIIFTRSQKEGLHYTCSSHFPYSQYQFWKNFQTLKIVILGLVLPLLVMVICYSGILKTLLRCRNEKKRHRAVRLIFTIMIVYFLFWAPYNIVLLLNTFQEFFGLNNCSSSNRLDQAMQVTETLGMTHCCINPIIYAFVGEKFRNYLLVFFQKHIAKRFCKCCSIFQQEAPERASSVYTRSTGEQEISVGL", "assay": "Calcium flux inhibition experiment", "assay_type": "cell-based", "conditions": "for IC50: HEK293/CCR5-Gα16 cell line, calcium flux, read-out: CCR5 IC50; for calcium influx inhibition effect in words, versus positive control compounds: conclusion from Table 1"}, "CYP2C19": {"biological_target": "CYP2C19 (Homo sapiens (Human), UniProt P33261)", "sequence (P33261 whole entry)": "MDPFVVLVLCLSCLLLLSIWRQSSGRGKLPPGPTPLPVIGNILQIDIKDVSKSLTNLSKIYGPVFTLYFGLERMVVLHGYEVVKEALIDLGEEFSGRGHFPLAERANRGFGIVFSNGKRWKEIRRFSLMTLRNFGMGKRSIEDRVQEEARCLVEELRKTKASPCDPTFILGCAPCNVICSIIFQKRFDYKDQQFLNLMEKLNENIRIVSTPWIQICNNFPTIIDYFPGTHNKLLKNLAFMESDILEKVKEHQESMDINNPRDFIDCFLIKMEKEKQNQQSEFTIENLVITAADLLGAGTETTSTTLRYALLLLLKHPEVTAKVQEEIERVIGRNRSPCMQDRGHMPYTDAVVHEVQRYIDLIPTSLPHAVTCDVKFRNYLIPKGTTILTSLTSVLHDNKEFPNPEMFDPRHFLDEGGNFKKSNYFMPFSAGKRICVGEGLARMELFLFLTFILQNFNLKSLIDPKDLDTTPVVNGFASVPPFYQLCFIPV", "assay": "CYP450 inhibition activity assay (Vivid kit) CYP2C19", "assay_type": "in vitro ADME", "conditions": "CYP450 subtype (μM) 2C19 (IC50)"}, "CYP2D6": {"biological_target": "CYP2D6 (Homo sapiens (Human), UniProt P10635)", "sequence (P10635 whole entry)": "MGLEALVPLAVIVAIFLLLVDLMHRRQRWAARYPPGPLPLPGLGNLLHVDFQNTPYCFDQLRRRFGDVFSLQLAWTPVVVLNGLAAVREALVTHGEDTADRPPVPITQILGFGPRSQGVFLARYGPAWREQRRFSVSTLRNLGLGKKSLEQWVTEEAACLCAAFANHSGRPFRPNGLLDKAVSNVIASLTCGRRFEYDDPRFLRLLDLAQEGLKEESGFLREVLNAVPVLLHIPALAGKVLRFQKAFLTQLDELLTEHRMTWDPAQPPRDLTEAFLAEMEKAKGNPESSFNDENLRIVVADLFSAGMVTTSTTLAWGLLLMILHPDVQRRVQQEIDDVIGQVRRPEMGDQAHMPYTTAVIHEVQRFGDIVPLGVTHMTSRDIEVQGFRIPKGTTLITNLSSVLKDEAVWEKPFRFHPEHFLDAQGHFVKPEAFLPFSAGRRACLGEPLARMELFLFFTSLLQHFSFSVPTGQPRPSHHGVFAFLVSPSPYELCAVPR", "assay": "CYP450 inhibition activity assay (Vivid kit) CYP2D6", "assay_type": "in vitro ADME", "conditions": "CYP450 subtype (μM) 2D6 (IC50)"}, "hERG": {"biological_target": "hERG (Homo sapiens (Human), UniProt Q12809)", "sequence (Q12809 whole entry)": "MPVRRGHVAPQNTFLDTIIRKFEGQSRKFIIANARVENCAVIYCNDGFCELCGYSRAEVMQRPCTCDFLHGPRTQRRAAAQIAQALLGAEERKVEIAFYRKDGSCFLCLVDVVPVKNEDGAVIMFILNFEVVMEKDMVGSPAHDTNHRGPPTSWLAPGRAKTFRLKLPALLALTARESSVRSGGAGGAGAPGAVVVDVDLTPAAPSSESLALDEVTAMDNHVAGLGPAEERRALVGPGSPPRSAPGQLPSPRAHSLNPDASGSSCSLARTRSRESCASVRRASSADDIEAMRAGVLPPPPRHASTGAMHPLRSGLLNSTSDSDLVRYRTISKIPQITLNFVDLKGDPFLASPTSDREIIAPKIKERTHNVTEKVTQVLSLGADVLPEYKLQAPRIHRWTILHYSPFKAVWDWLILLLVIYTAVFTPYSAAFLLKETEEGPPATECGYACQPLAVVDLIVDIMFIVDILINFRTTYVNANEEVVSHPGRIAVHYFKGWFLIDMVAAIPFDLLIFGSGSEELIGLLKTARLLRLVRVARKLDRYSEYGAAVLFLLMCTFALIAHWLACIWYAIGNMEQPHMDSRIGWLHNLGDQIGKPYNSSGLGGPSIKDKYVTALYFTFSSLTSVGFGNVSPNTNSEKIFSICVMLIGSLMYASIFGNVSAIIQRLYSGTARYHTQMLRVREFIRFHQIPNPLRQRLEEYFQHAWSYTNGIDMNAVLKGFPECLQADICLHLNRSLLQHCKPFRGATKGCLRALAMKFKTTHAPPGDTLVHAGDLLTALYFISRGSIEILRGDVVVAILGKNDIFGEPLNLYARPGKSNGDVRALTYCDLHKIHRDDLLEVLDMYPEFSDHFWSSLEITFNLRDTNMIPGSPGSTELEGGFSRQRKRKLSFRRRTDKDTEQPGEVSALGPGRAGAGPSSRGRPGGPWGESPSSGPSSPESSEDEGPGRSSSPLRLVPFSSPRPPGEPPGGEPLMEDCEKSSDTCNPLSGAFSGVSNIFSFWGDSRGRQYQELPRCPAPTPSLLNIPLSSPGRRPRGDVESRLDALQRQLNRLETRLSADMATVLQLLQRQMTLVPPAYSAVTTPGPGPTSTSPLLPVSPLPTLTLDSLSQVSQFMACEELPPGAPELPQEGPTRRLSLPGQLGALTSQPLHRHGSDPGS", "protocol": "CHO-hERG cells which have been incubated overnight were added with sample buffer and incubated for 90 minutes at room temperature in darkness.\nThe sample buffer was removed and assay buffer was added.\nThe compound is added to the cell plate and incubated for 20 minutes in darkness.\nCell plate was placed into FDSS. The fluorescence signal was recorded every second for 10 seconds. Exciting buffer was added to the cells at the 10th second and the fluorescence signal was recorded every second for 180 seconds"}, "HOS-CD4-CCR5 cells": {"test_system": "HOS-CD4-CCR5 cells", "assay": "Toxicity test of compounds on HOS-CD4-CCR5 cells (MTT)", "assay_type": "cell-based", "conditions": "HOS-CD4+-CCR5 cells (Table 8)", "outline": "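MTT read-out (570 nm, 630 nm reference) after 3-day culture of HOS-CD4-CCR5 cells at 4×10^5/ml or 7-day culture of PHA-activated PBMC at 5×10^6/ml, with fresh medium added on day 3. Compounds were tested as six 5-fold dilutions in triplicate, in 10% FBS medium at 37 °C, 5% CO2.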"}}, "note": "Like-named read-outs stand apart in the source and are kept apart here."}
{"smiles": "Cc1nnc(C(C)C)n1C1CC2CCC(C1)N2CC[C@H](NC(=O)C1CCCC1)c1cccs1", "note": "(stereo partly drawn) [Compound 18, N-[(1S)-3-[exo-3-(3-isopropyl-5-methyl-4H-1,2,4-triazol-4-yl)-8-azabicyclo[3.2.1]octane-8-yl]-1-(thiophen-2-yl)propyl]cyclopentane-1-carboxamide]", "values": [{"measurement": "IC50", "setting": "CYP3A4-M", "value": "> 25", "unit": "µM"}, {"measurement": "IC50", "setting": "CYP2C9", "value": "> 25", "unit": "µM"}, {"measurement": "IC50", "setting": "CYP3A4-T", "value": "> 25", "unit": "µM"}, {"measurement": "CLz", "setting": "[1]; male, 10 mg/kg", "value": 104, "unit": "mL/min/kg"}, {"measurement": "AUC0-t ng/mL * h", "setting": "[1]; male, po, 20 mg/kg", "value": 2801.1, "unit": "ng·h/mL"}, {"measurement": "protein stability effect in words, versus positive control compound", "setting": "CCR5 protein", "value": "comparable with the positive control compound"}, {"measurement": "Tm (° C.)", "setting": "CCR5 protein", "value": 71.73, "unit": "°C"}, {"measurement": "IC50", "setting": "CCR5", "value": 0.00373, "unit": "µM"}, {"measurement": "calcium influx inhibition effect in words, versus positive control compounds", "setting": "CCR5", "value": "better than the positive control compounds"}, {"measurement": "IC50", "setting": "CYP2C19", "value": "> 25", "unit": "µM"}, {"measurement": "IC50", "setting": "CYP2D6", "value": 16.8, "unit": "µM"}]}
{"smiles": "Cc1nnc(C(C)C)n1C1CC2CCC(C1)N2CC[C@H](NC(=O)C1CCC(F)(F)CC1)c1cccs1", "note": "(stereo partly drawn) [Compound 14, 4,4-difluoro-N-[(1S)-3-[exo-3-(3-isopropyl-5-methyl-4H-1,2,4-triazol-4-yl)-8-azabicyclo[3.2.1]octane-8-yl]-1-(thiophen-2-yl)propyl]cyclohexane-1-carboxamide]", "values": [{"measurement": "CLz", "setting": "[1]; male, 10 mg/kg", "value": 23.7, "unit": "mL/min/kg"}, {"measurement": "AUC0-t ng/mL * h", "setting": "[1]; male, po, 20 mg/kg", "value": 1108, "unit": "ng·h/mL"}, {"measurement": "Tm (° C.)", "setting": "CCR5 protein", "value": 68.10, "unit": "°C"}, {"measurement": "IC50", "setting": "CCR5", "value": 0.00233, "unit": "µM"}, {"measurement": "calcium influx inhibition effect in words, versus positive control compounds", "setting": "CCR5", "value": "better than the positive control compounds"}]}
{"smiles": "Cc1nnc(C(C)C)n1C1CCN(CC[C@H](NC(=O)C2CCCC2)c2cccs2)CC1", "note": "[Compound 17, N-[(1S)-3-[4-(3-isopropyl-5-methyl-4H-1,2,4-triazol-4-yl)-piperidin-1-yl]-1-(thiophen-2-yl)propyl]cyclopentane-1-carboxamide]", "values": [{"measurement": "IC50", "setting": "CYP3A4-M", "value": "> 25", "unit": "µM"}, {"measurement": "IC50", "setting": "CYP2C9", "value": "> 25", "unit": "µM"}, {"measurement": "IC50", "setting": "CYP3A4-T", "value": "> 25", "unit": "µM"}, {"measurement": "Tm (° C.)", "setting": "CCR5 protein", "value": 66.97, "unit": "°C"}, {"measurement": "IC50", "setting": "CCR5", "value": 0.00255, "unit": "µM"}, {"measurement": "calcium influx inhibition effect in words, versus positive control compounds", "setting": "CCR5", "value": "better than the positive control compounds"}, {"measurement": "IC50", "setting": "CYP2C19", "value": "> 25", "unit": "µM"}, {"measurement": "IC50", "setting": "CYP2D6", "value": "> 25", "unit": "µM"}]}
{"smiles": "Cc1nnc(C(C)C)n1C1CC2CCC(C1)N2CC[C@H](NC(=O)C1CCCCC1)c1cccs1", "note": "(some centres unmarked) [Compound 16]", "values": [{"measurement": "IC50", "setting": "CYP3A4-M", "value": 12.3, "unit": "µM"}, {"measurement": "IC50", "setting": "CYP2C9", "value": "> 25", "unit": "µM"}, {"measurement": "IC50", "setting": "CYP3A4-T", "value": 21.7, "unit": "µM"}, {"measurement": "IC50", "setting": "hERG; human", "value": 3.02, "unit": "µM"}, {"measurement": "CLz", "setting": "[1]; male, 10 mg/kg", "value": 32.7, "unit": "mL/min/kg"}, {"measurement": "AUC0-t ng/mL * h", "setting": "[1]; male, po, 20 mg/kg", "value": 1512.3, "unit": "ng·h/mL"}, {"measurement": "protein stability effect in words, versus positive control compound", "setting": "CCR5 protein", "value": "comparable with the positive control compound"}, {"measurement": "Tm (° C.)", "setting": "CCR5 protein", "value": 71.32, "unit": "°C"}, {"measurement": "IC50", "setting": "CCR5", "value": 0.00223, "unit": "µM"}, {"measurement": "calcium influx inhibition effect in words, versus positive control compounds", "setting": "CCR5", "value": "better than the positive control compounds"}, {"measurement": "IC50", "setting": "CYP2C19", "value": "> 25", "unit": "µM"}, {"measurement": "IC50", "setting": "CYP2D6", "value": 15.1, "unit": "µM"}]}
{"smiles": "Cc1ccc([C@H](CCN2C3CCC2CC(n2c(C)nnc2C(C)C)C3)NC(=O)C2CCC(F)(F)CC2)s1", "note": "(stereo partly drawn) [Compound 29, 4,4-difluoro-N-[(1S)-3-[exo-3-(3-isopropyl-5-methyl-4H-1,2,4-triazol-4-yl)-8-azabicyclo[3.2.1]octane-8-yl]-1-(5-methylthiophen-2-yl)propyl]cyclohexane-1-carboxamide]", "values": [{"measurement": "IC50", "setting": "CYP3A4-M", "value": 10.9, "unit": "µM"}, {"measurement": "IC50", "setting": "CYP2C9", "value": "> 25", "unit": "µM"}, {"measurement": "IC50", "setting": "CYP3A4-T", "value": 23.4, "unit": "µM"}, {"measurement": "CC50", "setting": "HOS-CD4-CCR5 cells", "value": ">200", "unit": "µg/mL"}, {"measurement": "IC50", "setting": "hERG", "value": 8.44, "unit": "µM"}, {"measurement": "hERG inhibition activity in words, versus positive control compounds", "setting": "hERG", "value": "better that those of positive control compounds"}, {"measurement": "AUC0-t ng/mL * h", "setting": "[1]; male, 10 mg/kg", "value": 2330.2, "unit": "ng·h/mL"}, {"measurement": "AUC0-t ng/mL * h", "setting": "[1]; male, po, 20 mg/kg", "value": 1870.7, "unit": "ng·h/mL"}, {"measurement": "CLz", "setting": "[1]; 10 mg/kg", "value": 71.5, "unit": "mL/min/kg"}, {"measurement": "IC50", "setting": "CYP2C19", "value": "> 25", "unit": "µM"}, {"measurement": "IC50", "setting": "CYP2D6", "value": "> 25", "unit": "µM"}]}
{"smiles": "Cc1nnc(C(C)C)n1C1CC2CCC(C1)N2CC[C@H](NC(=O)C1CCC(F)(F)CC1)c1ccsc1", "note": "(stereo partly drawn) [Compound 22, 4,4-difluoro-N-[(1S)-3-[exo-3-(3-isopropyl-5-methyl-4H-1,2,4-triazol-4-yl)-8-azabicyclo[3.2.1]octane-8-yl]-1-(thiophen-3-yl)propyl]cyclohexane-1-carboxamide]", "values": [{"measurement": "IC50", "setting": "CYP3A4-M", "value": "> 25", "unit": "µM"}, {"measurement": "IC50", "setting": "CYP2C9", "value": "> 25", "unit": "µM"}, {"measurement": "IC50", "setting": "CYP3A4-T", "value": "> 25", "unit": "µM"}, {"measurement": "CC50", "setting": "HOS-CD4-CCR5 cells", "value": ">800", "unit": "µg/mL"}, {"measurement": "hERG inhibition activity in words, versus positive control compounds", "setting": "hERG", "value": "better that those of positive control compounds"}, {"measurement": "CLz", "setting": "[1]; male, 10 mg/kg", "value": 40, "unit": "mL/min/kg"}, {"measurement": "AUC0-t ng/mL * h", "setting": "[1]; male, po, 20 mg/kg", "value": 1206, "unit": "ng·h/mL"}, {"measurement": "Tm (° C.)", "setting": "CCR5 protein", "value": 68.21, "unit": "°C"}, {"measurement": "IC50", "setting": "CCR5", "value": 0.00105, "unit": "µM"}, {"measurement": "calcium influx inhibition effect in words, versus positive control compounds", "setting": "CCR5", "value": "better than the positive control compounds"}, {"measurement": "IC50", "setting": "CYP2C19", "value": "> 25", "unit": "µM"}, {"measurement": "IC50", "setting": "CYP2D6", "value": "> 25", "unit": "µM"}]}
